Read-outs that look alike come from different tables or passages of the source.
What was measured:
cell membranes = details: not told; cited from earlier work
DNA = details: cited from earlier work

From the text for Bovine sperm: A sample cell was formed by two parallel glass slides coated with 1,500-2000 angstroms (Å) of indium tin oxide (ITO). The slides were separated by fragments of number zero glass cover slips, yielding a slide separation of 100 millimeters (mm).
The sample cell was connected to a resistor-capacitator (RC) circuit by alligator clips. A direct current (DC) power supply was used to charge a capacitor. When a switch was thrown, the discharging capacitor generated a time-dependant and spatially uniform electric field across the sample. An oscilloscope was used to monitor the voltage across the sample cell as a function of time.
The RC circuit formed by the sample cell and capacitor allowed for a well-controlled electric field to be generated. The resistance (R) of the circuit was left floating—that is, determined by the geometry and content of the sample cell. Typical R values ranged from 2-10,000 watts (W) depending primarily on the electrical conductivity of the buffer. The capacitance was varied from 0.1 millifarads (mF) to 1000 mF.
Bovine sperm that had been previously frozen were thawed for 60 seconds in a 96° F. water bath. Sperm were then centrifuged at 2,000 rotations per minute (rpm) for two minutes and the supernatant decanted. Sperm were then re-suspended with 0.35 M sucrose to partially dehydrate the sperm. The sperm solution was then incubated at 96° F. for 15 minutes and then transferred to the sample cell of the electroporation unit.
A voltage was applied to the capacitor circuit, and then the power supply was disconnected. A switch was then thrown and the capacitor discharged across the sample cell. These steps were carried out within 15 seconds of transferring the sperm to the sample cell to retain a random orientation of sperm with respect to the electric field. Electroporation was carried out on sperm in isotonic (0.25 M sucrose) and hypertonic (0.35 M sucrose) solutions. In each case, 10 V was applied to the capacitor and a time constant of 0.26 milliseconds (ms) measured.
A solution of 0.1 M sucrose and the DNA-specific dye, propidium iodide, was then injected into the sample cell. Fluorescence microscopy is used to image the sperm.
To distinguish fluorescent dead cells from fluorescent live cells, sperm motility was assessed.

| Compound | permeability to cell membranes (Applications) (cell membranes) | DNA affinity (Applications) (DNA) | base selectivity (Applications) (DNA) | also measured |
| --- | --- | --- | --- | --- |
| CC[n+]1c(/C=C/C=C/c2ccc(N(C)C)cc2)ccc2cc(N(C)C)ccc21.[O-][Cl+3]([O-])([O-])[O-] [LDS 751] | Permeant |  |  |  |
| Ethidium homodimer-2 [Ethidium homodimer-2 (EthD-2)] |  | Very high-affinity DNA labeling |  |  |
| N=C(N)c1ccc(-c2cc3ccc(C(=N)N)cc3[nH]2)cc1 [DAPI] | Semi-permeant |  | AT-selective |  |
| COc1ccc2nc3cc(Cl)ccc3c(N)c2c1 [ACMA, 9-amino-6-chloro-2-methoxyactridine] |  |  | AT-selective |  |
| COc1ccc2nc3cc(Cl)ccc3c(NCCCNCCCCNCCCNc3c4ccc(Cl)cc4nc4ccc(OC)cc34)c2c1 [Acridine homodimer] | Impermeant | High-affinity DNA binding | AT-selective |  |
| Cc1c2oc3c(C)c(N)cc(C(=O)N[C@@H]4C(=O)N[C@H](C(C)C)C(=O)N5CCC[C@H]5C(=O)N(C)CC(=O)N(C)[C@@H](C(C)C)C(=O)O[C@@H]4C)c3nc-2c(C(=O)N[C@@H]2C(=O)N[C@H](C(C)C)C(=O)N3CCC[C@H]3C(=O)N(C)CC(=O)N(C)[C@@H](C(C)C)C(=O)O[C@@H]2C)c(N)c1=O [7-AAD (7-amino-actinomycin D), 7-amino-actinomycin D] |  |  | GC-selective |  |
| CC[N+](C)(CC)CCC[n+]1c(-c2ccccc2)c2cc(N)ccc2c2ccc(N)cc21.[I-].[I-] [propidium iodide] | Impermeant |  |  | increase in the number of damaged and non-motile sperm (Bovine sperm): 68%; loss of motile sperm compared to the control (Bovine sperm): 70%; motile and fluorescent sperm (Bovine sperm; control samples unexposed to electric fields): did not yield motile and fluorescent sperm; motile and fluorescent sperm (Bovine sperm; electroporated, 10 V, time constant 0.26 ms, hypertonic/hypotonic solution (0.35 M sucrose, then 0.1 M sucrose with dye)): motile and fluorescent sperm were observed; motile and fluorescent sperm (Bovine sperm; electroporated, 10 V, time constant 0.26 ms, isotonic solution (0.25 M sucrose)): motile and fluorescent sperm were observed; enhancement of the number of motile and fluorescent sperm (Bovine sperm; hypertonic/hypotonic solution compared with isotonic solution): approximately five-ten; fluorescence of observed motile sperm (Bovine sperm; hypertonic/hypotonic solution exposed to the electric field): displayed fluorescence |
| CN1CCN(c2ccc3nc(-c4ccc5nc(-c6ccc(N(C)C)cc6)[nH]c5c4)[nH]c3c2)CC1 [Hoechst 34580] |  |  | AT-selective | dsDNA selectivity (Applications) (DNA): dsDNA-selective binding |
| Ethidium homodimer-1 [Ethidium homodimer-1 (EthD-1)] |  | High-affinity DNA labeling |  |  |

From US9453849B2, “Methods for staining cells for identification and sorting” (PREMIUM GENETICS (UK) LIMITED, priority 2005, dated 2016)
